Laboratory results from US10654797B2, “Solid forms of an adamantyl compound, compositions and uses thereof” (NORTH & SOUTH BROTHER PHARMACY INVESTMENT COMPANY LIMITED, priority 2016, dated 2020).
One block for each molecule: values may come before it.

Assays:
[1] = Stability of thin layers under high temperature, high humidity, light and ambient conditions, impurity by HPLC; format: physicochemical; conditions: day 10, HPLC
[2] = as above; format: physicochemical
Protocol: Thin layers (≤5 mm) of crystalline Form I were placed under high temperature (60±2° C.), high humidity (92.5%±2% humidity), light (visible light 4500 lx±500 lx) and ambient temperature (25±2° C., 65%±5% humidity) for 15 days, and samples were analyzed by HPLC on day 5, 9 and 15.

[3] = Hygroscopicity: weight gain at controlled relative humidity; format: physicochemical; conditions: 25° C.±1° C., 24 hours
[4] = In vivo pharmacokinetics: memantine in plasma after intramuscular administration to rats; conditions: memantine measured in rat plasma, memantine solution 17.5 mg/kg
Protocol: Compound (I) was tested in an experiment to determine its in vivo conversion to the active compound memantine.
Analytical LC/MS/MS systems: Agilent 1200 Series vacuum degasser, dual-injection pump, orifice autosampler, column incubator, charged spray ionization (ESI) source, and Agilent G6430 three-stage quadrupole mass spectrometer. The quantitative analysis is performed in the MRM mode, with the following MRM conversion parameters:
Waters XBridge TMC18, 2.1×30 mm, 3.5 μM column; 20 μL of sample was injected in each run. Conditions: The mobile phase included […]+2 mM ammonium formate+0.1% formic acid (A) and methanol+2 mM ammonium formate+0.1% formic acid (B). The flow rate was 0.35 mL/min. The mobile phase gradient is as follows: […]
Additional instruments and reagents included Agilent 6330 Series LC/MS/MS spectrometer equipped with a G1312A Binary Injection Pump, G1367A autosampler and MS/MS Detector for analysis; LC/MS/MS spectrometer with ESI source. Suitable cationic model treatments and MRM conversion were used for each analyte using standard solution for optimal analysis. Waters XBridge TMC18 was used with specifications of 2.1×30 mm, 3.5 μM. The reaction was carried out with […] ammonium formate+0.1% formic acid (A) and methanol+2 mM ammonium formate+0.1% formic acid (B). […]

[5] = Crystal form stability: suspension in water stirred 24 hours or storage, solids analyzed by X-ray diffraction; format: physicochemical; conditions: for Crystalline form after stirring in water: suspension in water, 24 hours, X-ray diffraction
Protocol: Samples of a mixture of crystalline Form I and Form II of Compound (I) were added to water at room temperature or 60° C. to form suspensions, which were stirred for 24 hours, and solids were analyzed by X-ray diffraction.

- percentage of impurity ([1]; 60 ± 2° C.): 0.02%
- percentage of impurity ([1]; 92.5% ± 2% humidity): 0.06%
- percentage of impurity ([1]; visible light 4500 lx±500 lx): 0.03%
- percentage of impurity ([2]; 60 ± 2° C., day 0, HPLC): 0.04%
- percentage of impurity ([2]; 60 ± 2° C., day 5, HPLC): 0.04%
- percentage of impurity ([2]; 60 ± 2° C., day 15, HPLC): 0.02%
- percentage of impurity ([2]; 92.5% ± 2% humidity, day 0, HPLC): 0.04%
- percentage of impurity ([2]; 92.5% ± 2% humidity, day 5, HPLC): 0.06%
- percentage of impurity ([2]; 92.5% ± 2% humidity, day 15, HPLC): 0.02%
- percentage of impurity ([2]; ambient temperature (25±2° C., 65%±5% humidity), day 0, HPLC): 0.04%
- percentage of impurity ([2]; ambient temperature (25±2° C., 65%±5% humidity), day 5, HPLC): 0.04%
- percentage of impurity ([2]; ambient temperature (25±2° C., 65%±5% humidity), day 10, HPLC): 0.04%
- percentage of impurity ([2]; ambient temperature (25±2° C., 65%±5% humidity), day 15, HPLC): 0.01%
- percentage of impurity ([2]; visible light 4500 lx±500 lx, day 0, HPLC): 0.04%
- percentage of impurity ([2]; visible light 4500 lx±500 lx, day 5, HPLC): 0.03%
- percentage of impurity ([2]; visible light 4500 lx±500 lx, day 15, HPLC): 0.02%
- hygroscopicity ([3]; 80% and 92.5% RH): lack of hygroscopicity
- weight gain ([3]; saturated KNO3 aqueous solution (92.5%±2% RH)): 0.06%
- weight gain ([3]; saturated NH4Cl aqueous solution (80%±2% RH)): 0.03%
SMILES: CC12CC3CC(C)(C1)CC(NC(=O)OCOC(=O)c1ccccc1)(C3)C2 [crystalline Form I, ((((1r,3R,5S,7r)-3,5-dimethyladamantan-1-yl)carbamoyl)oxy)methyl benzoate]
- chemical change under stress conditions ([2]; high temperature, high humidity, light and ambient temperature for 15 days): did not exhibit significant chemical change

- T1/2 [4]: 4 h
SMILES: CC12CC3CC(C)(C1)CC(N)(C3)C2 [memantine]

SMILES: CC12CC3CC(C)(C1)CC(NC(=O)OCOC(=O)c1ccccc1)(C3)C2 (mixture of isomers) [((((1r,3R,5S,7r)-3,5-dimethyladamantan-1-yl)carbamoyl)oxy)methyl benzoate]
- Crystalline form after stirring in water ([5]; 60° C.): completely converted to crystalline Form I
- Crystalline form after stirring in water ([5]; room temperature): remained as a mixture of crystalline Form I and Form II

- Crystalline form upon long term storage ([5]; long term storage at room temperature): converted to Form I
SMILES: CC12CC3CC(C)(C1)CC(NC(=O)OCOC(=O)c1ccccc1)(C3)C2 [Crystalline Form II, ((((1r,3R,5S,7r)-3,5-dimethyladamantan-1-yl)carbamoyl)oxy)methyl benzoate]
